The supplement of paper PMC13380429

Tests used:
[1] = tested on: A549-ACE2; experiment: drug-induced phospholipidosis relative to tamoxifen; higher = more phospholipidosis
[2] = tested on: A549-ACE2; experiment: phospholipidosis EC50; higher = less potent phospholipidosis inducer
[3] = tested on: A549-ACE2 infected with SARS-CoV-2; experiment: cell count relative to DMSO; higher = less toxic; conditions: 24 h
[4] = tested on: Caco-2; experiment: relative viability EC50 (midpoint between 100% and the lowest measured viability); higher = less toxic; conditions: 72 h
[5] = tested on: Vero E6; experiment: as above; conditions: 72 h
[6] = tested on: HepG2; experiment: as above; conditions: 72 h
[7] = tested on: U2OS; experiment: as above; conditions: 72 h
[8] = tested on: Caco-2; experiment: drug sensitivity score (DSS) for viability; higher = more toxic; extreme values may be limits of the assay; conditions: 72 h
[9] = tested on: Vero E6; experiment: as above; conditions: 72 h
[10] = tested on: HepG2; experiment: as above; conditions: 72 h
[11] = tested on: U2OS; experiment: as above; conditions: 72 h
[12] = tested on: Calu-3; experiment: as above; conditions: 72 h
[13] = tested on: A549-ACE2 infected with SARS-CoV-2; experiment: SARS-CoV-2 infection rate relative to DMSO; higher = more infection; conditions: 24 h
[14] = tested on: Caco-2; experiment: cell viability relative to DMSO; higher = less toxic; conditions: 72 h
[15] = tested on: Vero E6; experiment: as above; conditions: 72 h
[16] = tested on: HepG2; experiment: as above; conditions: 72 h
[17] = tested on: U2OS; experiment: as above; conditions: 72 h
[18] = tested on: Calu-3; experiment: as above; conditions: 72 h
[19] = tested on: A549-ACE2 infected with SARS-CoV-2; experiment: morphology score (similarity to uninfected cells); higher = more like uninfected cells; conditions: 24 h

CN1CCCC(CN2c3ccccc3Sc3ccccc32)C1 (configuration not stated) [mepazine]
drug-induced phospholipidosis [%], [1]
Conditions	0.3 µM	0.833333 µM	3.33333 µM	6.66667 µM	10 µM	30 µM
24 h	2.48	6.78	32.9	53.3	64.8	70.3
48 h	1.98	4.75	20.8	48.9	65.8	86.6
72 h	3.11	3.43	18.8	39.1	63.9	101

Conditions	SARS-CoV-2 infection rate [%]	cell count [%]	cell viability [%]	morphology score	phospholipidosis EC50 [µM]
[2], 24 h	–	–	–	–	3.88
[2], 48 h	–	–	–	–	6.39
[2], 72 h	–	–	–	–	9.51
[3], 0.3 µM	–	103	–	–	–
[3], 3 µM	–	112	–	–	–
[3], 10 µM	–	122	–	–	–
[3], 30 µM	–	113	–	–	–
[13], 0.3 µM	102	–	–	–	–
[13], 3 µM	59	–	–	–	–
[13], 10 µM	16	–	–	–	–
[13], 30 µM	27	–	–	–	–
[14], 1 nM	–	–	94.1	–	–
[14], 10 nM	–	–	98.3	–	–
[14], 100 nM	–	–	98.2	–	–
[14], 1000 nM	–	–	101	–	–
[14], 10000 nM	–	–	85.7	–	–
[15], 1 nM	–	–	101	–	–
[15], 10 nM	–	–	101	–	–
[15], 100 nM	–	–	103	–	–
[15], 1000 nM	–	–	97.1	–	–
[15], 10000 nM	–	–	94.8	–	–
[16], 1 nM	–	–	98.3	–	–
[16], 10 nM	–	–	102	–	–
[16], 100 nM	–	–	100	–	–
[16], 1000 nM	–	–	87.9	–	–
[16], 10000 nM	–	–	84.8	–	–
[17], 1 nM	–	–	99.1	–	–
[17], 10 nM	–	–	98.6	–	–
[17], 100 nM	–	–	98.6	–	–
[17], 1000 nM	–	–	100	–	–
[17], 10000 nM	–	–	91.4	–	–
[18], 1 nM	–	–	106	–	–
[18], 10 nM	–	–	99.2	–	–
[18], 100 nM	–	–	99.3	–	–
[18], 1000 nM	–	–	99.5	–	–
[18], 10000 nM	–	–	72.8	–	–
[19], 0.3 µM	–	–	–	0.02	–
[19], 3 µM	–	–	–	0.61	–
[19], 10 µM	–	–	–	0.86	–
[19], 30 µM	–	–	–	0.32	–

Conditions	drug sensitivity score	relative viability EC50 [µM]
[4]	–	> 10
[5]	–	> 10
[6]	–	> 10
[7]	–	> 10
[8]	0.1	–
[9]	0	–
[10]	1.1	–
[11]	0	–
[12]	1.2	–
